Data taken from patent US20050187608A1, “Radioprotective compound coating for medical devices” (priority 2004, published 2005).
Marks after values point to notes of the source that are not given here.

Key:
[1] = test system: neointimal hyperplasia and inflammation; experiment: Rapamycin compared with dexamethasone delivered from a stent; type: in vivo; details: for Inflammation Score: uncoated 0.97 ± 1.00; for Neointimal Area: uncoated 5.24 ± 1.65; for % Area Stenosis: uncoated 54 ± 19
Excerpt: Dexamethasone, a potent steroidal anti-inflammatory agent, was used as a reference standard.

[2] = In vivo release kinetics from rapamycin/mycophenolic acid coatings, porcine pharmacokinetics studies
Excerpt: The topcoat is two hundred micro grams.

[3] = test system: human coronary artery smooth muscle cells; experiment: Anti-proliferative activity of rapamycin with varying concentrations of mycophenolic acid; type: cell-based; details: non-synchronized cultured human coronary artery smooth muscle cells, two percent fetal bovine serum, mycophenolic acid zero to one thousand nano molar, FIG. 52
Excerpt: The multiple curves represent various concentrations of mycophenolic acid ranging from zero to one thousand nano molar concentrations. […] This potentiation observed in cultured coronary artery smooth muscle cells preferably translates to an enhancement in anti-restenotic efficacy following vascular injury and a reduction in the required amount of either agent to achieve the desired anti-restenotic effect.

[4] = test system: human coronary artery smooth muscle cell proliferation; experiment: In vitro cell culture study of coronary artery smooth muscle cell proliferation; type: cell-based
Excerpt: FIG. 51 is a graph of the inhibition of coronary artery smooth muscle cells by trichostatin A in a cell culture study.

Structure (SMILES)	Inflammation Score [1]	Neointimal Area [1]	% Area Stenosis [1] [%]	further results
C[C@@H]1C[C@H]2[C@@H]3CCC4=CC(=O)C=C[C@]4(C)[C@@]3(F)[C@@H](O)C[C@]2(C)[C@@]1(O)C(=O)CO [Dexamethasone, dexamethasone]	0.39 ± 0.24	4.31 ± 3.02 mm^2	45 ± 31	
CO[C@H]1C[C@@H]2CC[C@@H](C)[C@@](O)(O2)C(=O)C(=O)N2CCCC[C@H]2C(=O)O[C@H]([C@H](C)C[C@@H]2CC[C@@H](O)[C@H](OC)C2)CC(=O)[C@H](C)/C=C(\C)[C@@H](O)[C@@H](OC)C(=O)[C@H](C)C[C@H](C)/C=C/C=C/C=C/1C [Rapamycin, rapamycin]	0.13 ± 0.19	2.47 ± 0.94* mm^2	26 ± 10	in vivo release rate ([2]; PVDF basecoat 600 μg, rapamycin and mycophenolic acid equally two thirds by weight, 200 μg PVDF topcoat, FIG. 56): slower release rate than that of mycophenolic acid
COc1c(C)c2c(c(O)c1C/C=C(\C)CCC(=O)O)C(=O)OC2 [mycophenolic acid]				effect on the anti-proliferative rapamycin dose response curve [3]: potentiates the anti-proliferative activity of rapamycin; in vivo release of mycophenolic acid from the basecoat ([2]; EVA/BMA basecoat 600 μg with 30% rapamycin and 30% mycophenolic acid, BMA topcoat 0/100/200 μg, FIG. 54): elutes more completely over a shorter duration than the rapamycin
CC(/C=C/C(=O)NO)=C\[C@@H](C)C(=O)c1ccc(N(C)C)cc1 [trichostatin A]				inhibition of human coronary artery smooth muscle cell proliferation ([4]; FIG. 51): completely inhibit; IC50 ([4]; human coronary artery smooth muscle cells, read-out: anti-proliferative IC50): ~6 nM
